# Data as given in patent US12715858B2, “Pyridazinone compounds” (INVENTISBIO CO., LTD., priority 2020, dated 2026).
# Read-outs that look alike come from different tables or passages of the source.
# How the values were obtained:
# Format in all cases: physicochemical
# [1] = Solubility in water and bio-relevant media at 37° C. (HPLC of filtrate, pH of filtrate, XRPD of filter cake); settings: for solubility at 0.5 h / solubility at 2 h / solubility at 24 h: 37 °C, thermodynamic from solid; for solubility at 0.5 h / Solubility (mg/mL) 2 h / Solubility (mg/mL) 24 h / Solubility (mg/mL) 0.5 h / solubility at 2 h / solubility at 24 h: 37° C.; for solubility at 0.5 h: read-out: Solubility (mg/mL) 0.5 h; for XRPD: filter cake obtained at 2 or 24 hours; for PH 0.5 h / PH 2 h / PH 24 h: pH of the filtrate; for solubility at 2 h: read-out: Solubility (mg/mL) 2 h; for solubility at 24 h: read-out: Solubility (mg/mL) 24 h
# Method: Solubility of Form I of free acid, Form 1 and Form 2 of potassium salt, and Form A of sodium salt were tested in water and in bio-relevant media of Simulated Intestinal Fluid (SIF), Simulated Gastric Fluid (SGF), Fasted State Simulated Intestinal Fluid (FaSSIF), and Fed State Simulated Intestinal Fluid (FeSSIF) at 37° C. up to 24 hours. About 12 mg of the sample was weighed into sample vials and then 1.5 mL of each media was added to make suspensions respectively. All suspensions were shaken at 37° C. with 200 rpm.
# [2] = Dynamic Vapor Sorption (DVS); settings: for hygroscopicity: DVS; for water uptake / weight gain by DVS: at 80% RH (Form I: 0 to 80% RH), 25° C.
# Method: Dynamic Vapor Sorption (DVS): Moisture sorption/desorption data was collected on a IGASorp DVS. The sample was placed into a tarred sample chamber and weighed automatically. The sample was dried at 50° C. until the % RH was less than 0.3% and cooled to 25° C. Set the instrument parameters as below.
# [3] = Solid state stability at 60° C. and 40° C./75% RH for 7 days (HPLC purity, XRPD); settings: for chemical and physical stability: 40° C./75% RH and 60° C. for 7 days; for Purity at Day 7 (Area %) 40° C./75% RH: 7 days at 40° C./75% RH; for Purity at Day 7 (Area %) 40° C./75% RH / Purity at Day 7 (Area %) 60° C.: HPLC; for Purity at Day 7 (Area %) 60° C.: 7 days at 60° C.; for XRPD 40° C./75% RH: crystal form after 7 days at 40° C./75% RH; for XRPD 60° C.: crystal form after 7 days at 60° C.; for Initial Purity (Area %): day 0, HPLC
# Method: HPLC analysis was performed with an Agilent HPLC 1260 series instrument.
# Appropriate amount of free acid Form I, potassium salts Form 1 and Form 2, and sodium salt Form A were placed at 60° C. and 40° C./75% RH for 7 days. At 0 and 7 days, the samples were dissolved in diluent to prepare a solution of 0.5 mg/mL for HPLC purity analysis. Solid samples were analyzed by XRPD to check the crystal form.
# [4] = Interconversion study of potassium salt Form 1 and Form 2 (slurry of equal amounts); settings: for XRPD result: 20 V, stirred overnight
# Method: Interconversion study were performed in MeOH/EA (1/9, RT or 50° C.) and acetone/water (20/1, RT or 50° C.). Equal amounts of Form 1 and Form 2 were slurried in specified solvents at different temperatures for certain time.
# [5] = FaSSIF (Fasted State Simulated Intestinal Fluid), fassif, FaSSIF, LOQ is 0.5 μg/mL
# [6] = FeSSIF (Fed State Simulated Intestinal Fluid), fessif, FeSSIF
# [7] = water, water, Water, LOQ is 0.5 μg/mL
smiles,measurement,setting,value
Cc1nn(-c2cc(Cl)c(Oc3cc(C(C)C)c(=O)[nH]n3)c(Cl)c2)c(=O)[n-]c1=O.[K+] [Potassium salt Form 2],solubility at 0.5 h,[1]; [5],0.0011 mg/mL
same,Solubility (mg/mL) 2 h,"[1]; FaSSIF, LOQ is 0.5 μg/mL",0.015 mg/mL
same,Solubility (mg/mL) 24 h,[1]; FaSSIF,0.0070 mg/mL
same,Solubility (mg/mL) 0.5 h,[1]; FeSSIF,0.0041 mg/mL
same,Solubility (mg/mL) 2 h,[1]; FeSSIF,0.013 mg/mL
same,Solubility (mg/mL) 24 h,[1]; FeSSIF,0.022 mg/mL
same,Solubility (mg/mL) 0.5 h,"[1]; SGF, LOQ is 0.5 μg/mL",<LOQ
same,Solubility (mg/mL) 2 h,"[1]; SGF, LOQ is 0.5 μg/mL",<LOQ
same,Solubility (mg/mL) 24 h,"[1]; SGF, LOQ is 0.5 μg/mL",<LOQ
same,Solubility (mg/mL) 0.5 h,"[1]; SIF, LOQ is 0.5 μg/mL",<LOQ
same,Solubility (mg/mL) 2 h,"[1]; SIF, LOQ is 0.5 μg/mL",<LOQ
same,Solubility (mg/mL) 24 h,"[1]; SIF, LOQ is 0.5 μg/mL",<LOQ
same,Solubility (mg/mL) 0.5 h,"[1]; Water, LOQ is 0.5 μg/mL",4.63 mg/mL
same,Solubility (mg/mL) 2 h,"[1]; Water, LOQ is 0.5 μg/mL",6.69 mg/mL
same,Solubility (mg/mL) 24 h,"[1]; Water, LOQ is 0.5 μg/mL",6.71 mg/mL
same,XRPD,[1]; FaSSIF,Free acid
same,XRPD,[1]; FeSSIF,Free acid
same,XRPD,[1]; SGF,Free acid
same,XRPD,[1]; SIF,Free acid
same,XRPD,[1]; Water,Free acid
same,PH 0.5 h,[1]; FaSSIF,7.04
same,PH 2 h,[1]; FaSSIF,7.49
same,PH 24 h,[1]; FaSSIF,7.90
same,PH 0.5 h,[1]; FeSSIF,5.09
same,PH 2 h,[1]; FeSSIF,5.24
same,PH 24 h,[1]; FeSSIF,5.17
same,PH 0.5 h,[1]; SGF,1.35
same,PH 2 h,[1]; SGF,1.25
same,PH 24 h,[1]; SGF,1.25
same,PH 0.5 h,[1]; SIF,7.43
same,PH 2 h,[1]; SIF,7.51
same,PH 24 h,[1]; SIF,7.46
same,PH 0.5 h,[1]; Water,10.49
same,PH 2 h,[1]; Water,10.62
same,PH 24 h,[1]; Water,10.42
same,DVS Water % at 80% RH,"[2]; 80% RH, forms of potassium salt of Compound 1",1.6%
same,hygroscopicity,[2],slight hygroscopic
same,crystal form of solid after the DVS study,[2]; XRPD after DVS,remained unchanged
same,water uptake / weight gain by DVS,[2],1.6%
same,chemical and physical stability,[3],chemically and physically stable
same,Purity at Day 7 (Area %) 40° C./75% RH,[3],98.97 Area %
same,Purity at Day 7 (Area %) 60° C.,[3],99.07 Area %
same,XRPD 40° C./75% RH,[3],Unchanged
same,XRPD 60° C.,[3],Unchanged
same,Initial Purity (Area %),[3],99.04 Area %
same,relative stability of Form 1 and Form 2,"[4]; slurry in MeOH/EA and acetone/water, RT or 50° C.",more stable in aqueous solution
Cc1nn(-c2cc(Cl)c(Oc3cc(C(C)C)c(=O)[nH]n3)c(Cl)c2)c(=O)[n-]c1=O.[K+] [Potassium Salts Form 1 and 2],XRPD result,"[4]; 50° C., Acetone/Water (19/1)",Form 2
same,XRPD result,"[4]; 50° C., MeOH/EtOAc (1/9)",Form 1
same,XRPD result,"[4]; RT, Acetone/Water (19/1)",Form 2
same,XRPD result,"[4]; RT, MeOH/EtOAc (1/9)",Form 1
Cc1nn(-c2cc(Cl)c(Oc3cc(C(C)C)c(=O)[nH]n3)c(Cl)c2)c(=O)[n-]c1=O.[Na+] [Sodium salt Form A],solubility at 0.5 h,[1]; [5],0.0013 mg/mL
same,solubility at 2 h,[1]; [5],0.015 mg/mL
same,solubility at 24 h,"[1]; FaSSIF (Fasted State Simulated Intestinal Fluid), fassif, FaSSIF",0.013 mg/mL
same,solubility at 0.5 h,[1]; [6],0.0011 mg/mL
same,solubility at 2 h,[1]; [6],0.0029 mg/mL
same,solubility at 24 h,[1]; [6],0.012 mg/mL
same,Solubility (mg/mL) 0.5 h,"[1]; SGF, LOQ is 0.5 μg/mL",<LOQ
same,Solubility (mg/mL) 2 h,"[1]; SGF, LOQ is 0.5 μg/mL",<LOQ
same,Solubility (mg/mL) 24 h,"[1]; SGF, LOQ is 0.5 μg/mL",<LOQ
same,Solubility (mg/mL) 0.5 h,"[1]; SIF, LOQ is 0.5 μg/mL",<LOQ
same,Solubility (mg/mL) 2 h,"[1]; SIF, LOQ is 0.5 μg/mL",<LOQ
same,Solubility (mg/mL) 24 h,"[1]; SIF, LOQ is 0.5 μg/mL",<LOQ
same,XRPD,[1]; FaSSIF,Free acid
same,XRPD,[1]; FeSSIF,Free acid
same,XRPD,[1]; SGF,Free acid
same,XRPD,[1]; SIF,Free acid
same,XRPD,[1]; Water,Free acid +
same,PH 0.5 h,[1]; FaSSIF,7.07
same,PH 2 h,[1]; FaSSIF,7.33
same,PH 24 h,[1]; FaSSIF,8.27
same,PH 0.5 h,[1]; FeSSIF,5.09
same,PH 2 h,[1]; FeSSIF,5.18
same,PH 24 h,[1]; FeSSIF,5.26
same,PH 0.5 h,[1]; SGF,1.24
same,PH 2 h,[1]; SGF,1.24
same,PH 24 h,[1]; SGF,1.24
same,PH 0.5 h,[1]; SIF,7.23
same,PH 2 h,[1]; SIF,7.60
same,PH 24 h,[1]; SIF,7.65
same,PH 0.5 h,[1]; Water,10.76
same,PH 2 h,[1]; Water,10.81
same,PH 24 h,[1]; Water,10.63
same,solubility at 0.5 h,[1]; [7],2.8 mg/mL
same,solubility at 2 h,[1]; [7],3.51 mg/mL
same,solubility at 24 h,[1]; [7],4.57 mg/mL
same,hygroscopicity,[2],slightly hygroscopic
same,water uptake / weight gain by DVS,[2],about 1.6%
same,chemical and physical stability,[3],chemically and physically stable
same,Purity at Day 7 (Area %) 40° C./75% RH,[3],98.02 Area %
same,Purity at Day 7 (Area %) 60° C.,[3],98.01 Area %
same,XRPD 40° C./75% RH,[3],Unchanged
same,XRPD 60° C.,[3],Unchanged
same,Initial Purity (Area %),[3],97.98 Area %
